{"source": "patent US20110004098A1", "about": "“ESTER IMAGING AGENTS” (priority 2008, published 2011)", "origin": "cited, not measured here", "test_system": "bladder carcinoma in situ", "details": "cystoscopy with Hexvix, as opposed to 58% with white light cystoscopy"}
{"smiles": "CCCCCCOC(=O)CCC(=O)CN.Cl", "note": "[Hexvix, n-hexyl 5-aminolevulinate hydrochloride]", "values": [{"measurement": "sensitivity of detecting bladder carcinoma in situ", "result": 97, "unit": "%"}]}
